Measured values from patent US11279726B2, “Norbornene-based amphipathic compound and utilization thereof” (Industry-University Cooperation Foundation Hanyang …, priority 2017, dated 2022).

Target: T1, Salmonella typhimurium melibiose permease (MelBSt) (Salmonella typhimurium, UniProt P30878)
T1 construct: made in house; host or cells: E. coli DW2 (ΔmelB, ΔlacZY)
Test: MelBSt extraction and thermostability (SDS-PAGE / western blotting)
Settings: 1.5 wt %, elevated temperature
Experimental: An experiment of measuring structural stability of MelBSt (Salmonella typhimurium melibiose permease) protein with NBMs was carried out. The MelBSt protein was extracted from the membrane using NBMs or DDM, and the amounts and structure of the extracted proteins were analyzed by SDS-PAGE and western blotting. The concentration of the used amphiphilic compound was 1.5 wt %. The proteins were extracted at four temperatures (0, 45, 55, and 65° C.) and incubated at the same temperature for 90 minutes, and the amounts of the remaining proteins solubilized in an aqueous solution were measured, so as to simultaneously evaluate both performances of the compound such as protein extraction efficiency and stabilization activity. The amounts of the proteins extracted and stabilized by respective amphiphilic molecules were represented as relative values (%) to the amounts of total proteins contained in the membrane sample not treated with an amphiphilic molecule.
Specifically, Salmonella typhimurium melibiose permease (MelBSt) with a C-terminal 10-His tag was expressed in E. coli DW2 cells (^ΔmelB and ^ΔlacZY) using plasmid pK95^ΔAHB/WT MelBSt/CH10. Cell growth and membrane preparation were carried out according to the method described in the literature written by A. S. Ethayathulla et al. (Nat. Commun. 2014, 5, 3009). Protein assays were carried out with a Micro BCA kit (Thermo Scientific, Rockford, Ill.). The measurement of MelBSt stability was carried out on NBMs or DDM according to the protocol described by P. S. Chae et al. (Nat. Methods 2010, 7, 1003-1008). Membrane samples containing MelBSt (final protein concentration was 10 mg/mL) were incubated with a solubilization buffer (20 mM sodium phosphate, pH 7.5, 200 mM NaCl, 10% glycerol, 20 mM melibiose) and 1.5% (w/v) of DDM or NBMs (X-NBM-C10, D-NBM-C10, X-NBM-C11 or D-NBM-C11) at four different temperatures (0, 45, 55, 65° C.) for 90 minutes. To remove insoluble materials, following ultracentrifugation at 355,590 g using a Beckman Optimal™ MAX ultracentrifuge with TLA-100 rotor for 45 minutes at 4° C. was performed, and 20 μg of each protein sample was separated by SDS-16% PAGE, and then immunoblotted with a Penta-His-HRP antibody (Qiagen, Germantown, Md.). MelBSt was detected using SuperSignal West Pico chemiluminescent substrate by an ImageQuant LAS 4000 Biomolecular Imager (GE Health Care Life Science).

T1 sequence (P30878 whole entry): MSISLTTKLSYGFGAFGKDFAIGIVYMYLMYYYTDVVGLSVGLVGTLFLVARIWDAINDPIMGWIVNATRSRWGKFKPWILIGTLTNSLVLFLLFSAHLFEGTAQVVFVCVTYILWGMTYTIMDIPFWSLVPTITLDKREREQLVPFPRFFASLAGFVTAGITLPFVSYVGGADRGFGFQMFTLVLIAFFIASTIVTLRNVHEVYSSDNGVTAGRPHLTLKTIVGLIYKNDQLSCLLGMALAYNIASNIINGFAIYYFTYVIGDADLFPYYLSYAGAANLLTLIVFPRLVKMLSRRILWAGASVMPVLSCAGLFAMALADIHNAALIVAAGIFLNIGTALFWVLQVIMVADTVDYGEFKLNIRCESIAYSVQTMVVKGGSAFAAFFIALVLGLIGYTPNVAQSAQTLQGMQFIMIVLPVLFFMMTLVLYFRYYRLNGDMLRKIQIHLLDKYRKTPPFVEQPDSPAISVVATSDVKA

CCCCCCCCCCCOCC1C2CC([C@@H]1COCCCCCCCCCCC)[C@H](O[C@@H]1OC(CO)[C@@H](O[C@H]3OC(CO)[C@@H](O)C(O)C3O)C(O)C1O)C2O[C@@H]1OC(CO)[C@@H](O[C@H]2OC(CO)[C@@H](O)C(O)C2O)C(O)C1O (stereo partly drawn) [D-NBM-C11]
MelBSt membrane protein stabilization activity (overall): excellent membrane protein stabilization activity
